Laboratory results from ChEMBL document CHEMBL5303304, “EUbOPEN Chemogenomics Library - IncuCyte” (2023).

Columns and labels:
Format in all cases: toxicity, cell-based
[1] = system: HEK-293T; experiment: Incucyte cell viability with HEK293T; conditions: human, 10 µM, compound concentration 10 uM
[2] = system: U2OS; experiment: Incucyte cell viability with U2OS; conditions: human, 10 µM, compound concentration 10 uM
[3] = system: Fibroblast; experiment: Incucyte cell viability with human fibroblast; conditions: 10 µM, compound concentration 10 uM
Further: unitless GR value; below 1 slowed growth and below 0 cell loss.

| SMILES | Growth Rate ([1]; 6 h, replicate number 2) | Growth Rate ([2]; 24 h, replicate number 2) | Growth Rate ([3]; 6 h, replicate number 2) | Growth Rate ([3]; 12 h, replicate number 2) | Growth Rate ([3]; 18 h, replicate number 1) | Growth Rate ([3]; 18 h, replicate number 2) | Growth Rate ([2]; 6 h, replicate number 1) | Growth Rate ([2]; 6 h, replicate number 2) | Growth Rate ([2]; 12 h, replicate number 1) | Growth Rate ([2]; 12 h, replicate number 2) | Growth Rate ([2]; 18 h, replicate number 2) | Growth Rate ([3]; 6 h, replicate number 1) | Growth Rate ([1]; 12 h, replicate number 1) | Growth Rate ([1]; 18 h, replicate number 1) | Growth Rate ([1]; 18 h, replicate number 2) | Growth Rate ([1]; 24 h, replicate number 1) | Growth Rate ([2]; 24 h, replicate number 1) | Growth Rate ([3]; 24 h, replicate number 2) | Growth Rate ([1]; 6 h, replicate number 1) | Growth Rate ([2]; 18 h, replicate number 1) | further results |
| --- | --- | --- | --- | --- | --- | --- | --- | --- | --- | --- | --- | --- | --- | --- | --- | --- | --- | --- | --- | --- | --- |
| CC(C)c1cc(Br)c(NC(=O)Nc2cccnc2)c(Br)c1 | 0.84 | 0.98 | -0.99 | 0.73 | -0.82 | 0.89 | – | – | – | – | – | – | – | – | – | – | – | – | – | – | Growth Rate ([1]; 0 h, replicate number 2): 0.91; Growth Rate ([2]; 0 h, replicate number 1): -0.34 |
| O=C(NCC1(N2CCN(c3ccccc3)CC2)CCOCC1)c1cccnc1Sc1ccccc1 | – | 0.93 | – | – | -0.49 | – | 0.97 | 0.73 | 0.95 | 0.86 | 0.92 | 0.02 | – | – | – | – | – | – | – | – | Growth Rate ([1]; 0 h, replicate number 1): 0.97; Growth Rate ([1]; 0 h, replicate number 2): -0.38; Growth Rate ([2]; 0 h, replicate number 1): 0.14; Growth Rate ([2]; 0 h, replicate number 2): -0.32; Growth Rate ([3]; 12 h, replicate number 1): -1 |
| O=C1CCC(N2Cc3cc(CNC(=O)C(F)(F)c4ccc(Cl)cc4)ccc3C2=O)C(=O)N1 (stereo unspecified) | – | 0.85 | – | 0.51 | – | 0.98 | 0.81 | 0.89 | 0.97 | 0.98 | – | – | 0.83 | 0.81 | 1 | 0.89 | 0.99 | 0.99 | – | – | Growth Rate ([1]; 0 h, replicate number 2): 0.81; Growth Rate ([2]; 0 h, replicate number 2): 0.39 |
| Cn1c(=O)n(CCCO)c(=O)c2c1nc(Oc1cccc(OC(F)(F)F)c1)n2Cc1ccc(Cl)cc1 [ZERENCOTREP] | 0.64 | – | -0.98 | 0.88 | – | 0.6 | – | – | 0.8 | – | – | -0.36 | 0.92 | 0.98 | – | – | 0.94 | 0.54 | 0.54 | 0.88 | Growth Rate ([1]; 0 h, replicate number 1): 0.5; Growth Rate ([1]; 0 h, replicate number 2): 0.33; Growth Rate ([2]; 0 h, replicate number 2): -0.21; Growth Rate ([3]; 12 h, replicate number 1): -1 |
| Cc1ccc(S(=O)(=O)Nc2ccc(-n3nc(C(F)(F)F)cc3C(F)(F)F)cc2)cc1 | 0.63 | 0.72 | -1 | 0.78 | 0.74 | – | 0.01 | 0.69 | 0.91 | 0.8 | 0.83 | -0.21 | 0.58 | 0.47 | 0.81 | 0.62 | 0.84 | 0.83 | 0.36 | 0.74 | Growth Rate ([1]; 12 h, replicate number 2): 0.66; Growth Rate ([1]; 24 h, replicate number 2): 0.92; Growth Rate ([3]; 12 h, replicate number 1): -1 |
| Cc1cc(=O)oc2cc(NC(=O)[C@H](Cc3ccc(I)cc3)NC(=O)[C@H]3N[C@@H]4CC[C@H]3C4)ccc12.O=C(O)C(F)(F)F | – | 0.85 | -0.13 | 0.19 | – | 0.35 | 0.26 | – | 0.89 | – | 0.92 | – | 0.55 | 0.61 | – | 0.76 | 0.88 | 0.61 | -0.02 | 0.97 | Growth Rate ([2]; 0 h, replicate number 1): -0.48; Growth Rate ([3]; 0 h, replicate number 1): -1 |
| CC(=O)NCC(=O)N1[C@@H]2CC[C@H]1c1ccc(Nc3ncc(C(F)(F)F)c(NC4CCC4)n3)cc12 [PF-03814735] | -0.94 | -0.08 | – | 0.65 | 0.52 | 0.15 | – | 1 | -0.05 | -0.14 | -0.08 | -1 | -0.89 | -0.72 | -0.55 | -0.57 | 0.02 | 0.08 | -0.95 | 0.03 | Growth Rate ([1]; 12 h, replicate number 2): -0.75; Growth Rate ([1]; 24 h, replicate number 2): -0.39; Growth Rate ([2]; 0 h, replicate number 1): -0.94; Growth Rate ([3]; 0 h, replicate number 1): -0.26; Growth Rate ([3]; 24 h, replicate number 1): 0.86 |
| C=C1/C(=C\C=C2/CCC[C@]3(C)[C@@H]([C@H](C)CCCC(C)(C)O)CC[C@@H]23)C[C@@H](O)C[C@@H]1O [CALCITRIOL] | 0.4 | 0.67 | 0.1 | 0.64 | 0.64 | – | 0.27 | 0.45 | -0.16 | 0.63 | 0.67 | 0.62 | 0.61 | 0.44 | 0.67 | 0.53 | 0.91 | – | 0.8 | 0.83 | Growth Rate ([1]; 0 h, replicate number 2): -0.91; Growth Rate ([1]; 12 h, replicate number 2): 0.7; Growth Rate ([1]; 24 h, replicate number 2): 0.55; Growth Rate ([2]; 0 h, replicate number 1): -0.07; Growth Rate ([2]; 0 h, replicate number 2): 0.74; Growth Rate ([3]; 12 h, replicate number 1): 0.49; Growth Rate ([3]; 24 h, replicate number 1): 0.96 |
| CN1CCN(C(=O)Cc2ccc(N/C(=C3\C(=O)Nc4cc(Cl)ccc43)c3ccccc3)cc2)CC1 | 0.83 | 0.58 | -0.1 | 0.01 | 0.44 | 0.21 | – | 0.9 | – | 0.86 | 0.7 | 0.12 | 0.71 | 0.84 | 0.82 | 0.8 | – | 0.28 | 0.26 | – | Growth Rate ([1]; 12 h, replicate number 2): 0.92; Growth Rate ([1]; 24 h, replicate number 2): 0.73; Growth Rate ([3]; 0 h, replicate number 2): 0.06; Growth Rate ([3]; 12 h, replicate number 1): 0.24; Growth Rate ([3]; 24 h, replicate number 1): 0.48 |
| Cn1cc(-c2cnc3ccc4ccc(CS(=O)(=O)NCc5ccccn5)cc4c(=O)c3c2)cn1 [MK-8033] | 0 | – | -0.01 | – | – | – | 0.9 | 0.76 | – | 0.75 | – | 0.98 | 0.39 | 0.56 | 0.63 | 0.71 | 0.81 | – | 0.24 | 0.88 | Growth Rate ([1]; 12 h, replicate number 2): 0.34; Growth Rate ([1]; 24 h, replicate number 2): 0.78; Growth Rate ([2]; 0 h, replicate number 2): 0.2; Growth Rate ([3]; 0 h, replicate number 1): -1 |
